From patent US20200377551A1, “PEPTIDE CONSTRUCTS AND METHODS FOR ENHANCEMENT OF INTERFERON PRODUCTION” (Wake Forest University Health Sciences, priority 2019, published 2020)
Like-named read-outs stand apart in the source and are kept apart here.

Tests used:
VSV = assay type: in vivo; details: mice; sodium oxamate (750 mg/kg)
MAVS-TBK1-IRF3 = experiment: IRF3 and TBK1 phosphorylation and MAVS aggregation in cells upon RLR activation; assay type: cell-based; details: data not shown
Description: In vivo and in vitro MAVS aggregation assays. In vivo MAVS aggregation was performed according to published protocol (Hou et al., 2011). In brief, mitochondria were isolated by using the Mitochondria isolation kit (Thermo 89874), and mitochondria pellet was suspended in 1×sample buffer (0.5×TBE, 10% glycerol, 2% SDS, and 0.0025% bromophenol blue) and subjected to Semi-denaturing detergent agarose gel electrophoresis (SDD-AGE). Samples were loaded onto a vertical 1.5% agarose gel (Bio-Rad). After electrophoresis in the running buffer (1×TBE and 0.1% SDS) for 40 min with a constant voltage of 80-100 V at 4° C., the proteins were transferred to Immobilon membrane (Millipore) for immunoblotting.

HSV = tested on: HSV; parameters: species or system mice; details: mouse, in vivo
RIG-I/MAVS = target: T1, RIG-I/MAVS (Homo sapiens, UniProt Q7Z434); experiment: Immunoprecipitation of activated RIG-I and MAVS in HEK293 cells; assay type: cell-based; details: basal and Sendai virus-infected conditions
T1 construct: host or cells: HEK293 (per the earlier reading)
T1 sequence (Q7Z434 whole entry): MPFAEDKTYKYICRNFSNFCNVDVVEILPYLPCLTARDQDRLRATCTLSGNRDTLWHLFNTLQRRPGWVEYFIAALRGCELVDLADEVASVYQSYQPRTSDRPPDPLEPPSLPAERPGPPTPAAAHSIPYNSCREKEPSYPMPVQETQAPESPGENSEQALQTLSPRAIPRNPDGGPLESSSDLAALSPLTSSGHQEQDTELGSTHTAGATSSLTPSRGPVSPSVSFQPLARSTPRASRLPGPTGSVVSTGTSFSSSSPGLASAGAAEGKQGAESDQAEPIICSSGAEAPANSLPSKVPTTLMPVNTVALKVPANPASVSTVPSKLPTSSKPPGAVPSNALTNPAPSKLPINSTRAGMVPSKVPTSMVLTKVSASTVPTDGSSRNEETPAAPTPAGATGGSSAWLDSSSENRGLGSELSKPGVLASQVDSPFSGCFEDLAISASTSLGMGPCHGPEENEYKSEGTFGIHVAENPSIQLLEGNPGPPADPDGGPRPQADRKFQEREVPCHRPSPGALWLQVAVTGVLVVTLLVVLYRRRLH

MAVS [1] = target: T2, MAVS (Homo sapiens, UniProt Q7Z434); experiment: MAVS mitochondria localization in HEK293 cells (immunoblot of mitochondria fraction, immunofluorescence)
Target sequence in this assay (Q7Z434 whole entry): as above

RLR signaling [2] = experiment: Q-PCR analysis of IFN-β expression in Hep3B cells transfected with Poly(I:C); assay type: cell-based; details: Hep3B control cells; effect markedly impaired upon MCT1 knockdown
RLR signaling [3] = assay type: cell-based
HEK293 cells [4] = experiment: Lactate level measurement in HEK293 cells; assay type: cell-based; details: sodium oxamate (20 mM) overnight
Sendai virus = assay type: cell-based
MAVS signaling = assay type: cell-based
HK2 = experiment: Immunoblot of HK2 level in the mitochondria fraction of THP1 cells; details: Poly(I:C) or HTDNA transfection or LPS stimulation
HEK293 cells [5] = experiment: Metabolomics analysis of HEK293 cells after Poly(I:C) transfection; assay type: cell-based
Description: To investigate whether energy metabolism participates in regulating type-I IFN production, an unbiased, a systemic metabolomics approach was employed to examine the global metabolic changes during RLR-induced type-I IFN production. Changes of metabolites in glycolysis or oxidative phosphorylation were observed upon transfection of HEK293 cells with Poly(I:C) and harvesting for metabolomics analysis. […] As the direct pyruvate downstream metabolite, Acetyl-CoA production would be expected to decrease due to the reduction in pyruvate level, leading to the slower consumption of OAA for citrate production and thus maintaining the OAA level.

RLR signaling [6] = assay type: cell-based; remark: listed apart in the source
VSV-GFP = assay type: cell-based, Vesicular stomatitis virus
iBMM cells = assay type: cell-based
MAVS [7] = target: T2, MAVS; experiment: Lactate-MAVS binding (biotin-lactate pulldown, immunoprecipitation, in vitro binding)
Target sequence in this assay (Q7Z434 2-540 limits assumed): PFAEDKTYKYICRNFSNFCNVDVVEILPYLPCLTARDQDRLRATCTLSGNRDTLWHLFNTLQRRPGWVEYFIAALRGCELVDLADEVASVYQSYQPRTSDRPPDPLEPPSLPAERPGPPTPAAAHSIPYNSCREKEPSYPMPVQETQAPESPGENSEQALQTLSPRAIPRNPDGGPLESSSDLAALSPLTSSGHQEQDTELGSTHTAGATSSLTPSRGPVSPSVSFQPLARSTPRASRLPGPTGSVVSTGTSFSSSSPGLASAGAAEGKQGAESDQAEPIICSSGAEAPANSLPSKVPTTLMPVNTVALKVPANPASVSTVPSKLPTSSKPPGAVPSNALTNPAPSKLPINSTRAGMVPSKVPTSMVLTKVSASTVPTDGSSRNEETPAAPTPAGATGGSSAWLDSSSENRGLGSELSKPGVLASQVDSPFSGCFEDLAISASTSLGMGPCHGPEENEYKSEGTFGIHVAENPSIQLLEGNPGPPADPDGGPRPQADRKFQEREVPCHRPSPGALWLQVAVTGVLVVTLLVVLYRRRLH

RLR signaling [8] = assay type: cell-based, mice
HeLa cells = experiment: Immunofluorescence cellular localization of peptides in HeLa cells; assay type: cell-based; details: HeLa cells pretreated with peptides; MAVS or Tat antibody staining; data not shown
[9] = 2 hours post PolyI:C transfection
[10] = 4 hours post PolyI:C transfection
[11] = 8 hours post PolyI:C transfection

## NC(=O)C(=O)[O-].[Na+] [sodium oxamate]
VSV
  lactate production: reduced
MAVS-TBK1-IRF3
  IRF3 and TBK1 phosphorylation and MAVS aggregation upon RLR activation: promoted
HSV
  IFN production: no difference
RIG-I/MAVS
  interaction between activated RIG-I and MAVS: enhanced
MAVS [1]; oxamate alone
  MAVS mitochondria localization: potentiated
RLR signaling [2]
  IFN-β expression: promoted IFN-β expression
RLR signaling [3]
  IFN-β production: enhanced
HEK293 cells [4]
  lactate level: reduced
Sendai virus
  virus replication: suppressing virus replication

## N#C/C(=C\c1cn(-c2ccccc2)c2ccccc12)C(=O)O [UK5099]
MAVS signaling
  MAVS signaling and IFN-β induction: decreased
  lactate level: elevated

## polyI:C
HK2
  mitochondria HK2 level: decreased
HEK293 cells [5]; [9]
  Relative Quantity, 2/3-Phosphoglyceric Acid (185.0/97.0): 0.4994
  Relative Quantity, 3HBA (103.0/59.0): 0.6808
  Relative Quantity, Aconitate (173.0/85.0): 0.7655
  Relative Quantity, Alpha-Ketoglutaric Acid (145.0/101.0): 0.94
  Relative Quantity, D-GA3P (168.9/97.0): 0.5042
  Relative Quantity, DHAP (168.9/78.8): 0.6334
  Relative Quantity, F16BP/F26BP/G16BP (339.0/97.0): 0.5666
  Relative Quantity, Fumaric Acid (115.0/71.0): 0.7279
  Relative Quantity, G1P/G6P/F6P/F1P (259.0/97.0): 0.712
  Relative Quantity, Glucose (179.0/89.0): 1.118
  Relative Quantity, Lactate (89.0/43.0): 0.536
  Relative Quantity, Malate (133.0/115.0): 0.6979
  Relative Quantity, Maleic Acid (115.0/71.0 (2)): 0.6194
  Relative Quantity, Malonic Acid (103.0/41.0): 0.5644
  Relative Quantity, Oxalacetate (131.0/113.0): 0.977
  Relative Quantity, PEP (166.9/79.0): 0.3968
  Relative Quantity, Pyruvate (87.0/43.0): 0.683
  Relative Quantity, Succinate (117.0/73.0): 0.7616
HEK293 cells [5]; [10]
  Relative Quantity, 2/3-Phosphoglyceric Acid (185.0/97.0): 0.7985
  Relative Quantity, 3HBA (103.0/59.0): 0.7735
  Relative Quantity, Aconitate (173.0/85.0): 0.6576
  Relative Quantity, Alpha-Ketoglutaric Acid (145.0/101.0): 0.8959
  Relative Quantity, D-GA3P (168.9/97.0): 0.6278
  Relative Quantity, DHAP (168.9/78.8): 0.935
  Relative Quantity, F16BP/F26BP/G16BP (339.0/97.0): 0.9103
  Relative Quantity, Fumaric Acid (115.0/71.0): 0.7094
  Relative Quantity, G1P/G6P/F6P/F1P (259.0/97.0): 0.8706
  Relative Quantity, Glucose (179.0/89.0): 1.093
  Relative Quantity, Lactate (89.0/43.0): 0.657
  Relative Quantity, Malate (133.0/115.0): 0.7843
  Relative Quantity, Maleic Acid (115.0/71.0 (2)): 0.7566
  Relative Quantity, Malonic Acid (103.0/41.0): 0.6946
  Relative Quantity, Oxalacetate (131.0/113.0): 1.006
  Relative Quantity, PEP (166.9/79.0): 0.7706
  Relative Quantity, Pyruvate (87.0/43.0): 0.7115
  Relative Quantity, Succinate (117.0/73.0): 0.8793
HEK293 cells [5]; [11]
  Relative Quantity, 2/3-Phosphoglyceric Acid (185.0/97.0): 1.118
  Relative Quantity, 3HBA (103.0/59.0): 1.035
  Relative Quantity, Aconitate (173.0/85.0): 0.7724
  Relative Quantity, Alpha-Ketoglutaric Acid (145.0/101.0): 0.965
  Relative Quantity, D-GA3P (168.9/97.0): 0.998
  Relative Quantity, DHAP (168.9/78.8): 1.101
  Relative Quantity, F16BP/F26BP/G16BP (339.0/97.0): 1.127
  Relative Quantity, Fumaric Acid (115.0/71.0): 1.057
  Relative Quantity, G1P/G6P/F6P/F1P (259.0/97.0): 1.034
  Relative Quantity, Glucose (179.0/89.0): 0.9641
  Relative Quantity, Lactate (89.0/43.0): 1.05
  Relative Quantity, Malate (133.0/115.0): 0.9353
  Relative Quantity, Maleic Acid (115.0/71.0 (2)): 0.9352
  Relative Quantity, Malonic Acid (103.0/41.0): 0.9823
  Relative Quantity, Oxalacetate (131.0/113.0): 1.032
  Relative Quantity, PEP (166.9/79.0): 1.062
  Relative Quantity, Pyruvate (87.0/43.0): 1.023
  Relative Quantity, Succinate (117.0/73.0): 0.8886

## O=C[C@H](O)[C@@H](O)[C@@H](O)[C@H](O)CO [galactose]
RLR signaling [6]
  IFN-β and IL-6 production upon poly(I:C) or Sev challenge: markedly enhanced
VSV-GFP
  GFP expression: no GFP expression
  viral replication, as determined by GFP fluorescence: marked reduction in viral replication
iBMM cells
  anaerobic glycolysis-mediated lactate production: impaired

## CC(O)C(=O)O (centres unmarked) [lactate]
RIG-I/MAVS
  interaction between activated RIG-I and MAVS: markedly reduced
MAVS [1]; lactate add-back with oxamate
  effect of oxamate on MAVS mitochondria localization: compromised this effect
MAVS [7]; biotin-labeled lactate mixed with whole cell extracts (HEK293)
  interaction with RLR signaling proteins in biotin pulldown: specifically interacted with MAVS
MAVS [7]; complexes immunoprecipitated by anti-MAVS antibody from HEK293 cells
  interaction with MAVS in cells under physiological conditions: interacted with lactate
MAVS [7]; pre-incubation with excessive lactate, data not shown
  binding of MAVS to Biotin-lactate: significantly attenuated
RLR signaling [8]
  IFN-β production: consistently reduced

## control peptide: corresponding control construct (SEQ ID NO:43) (YGRKKRRQRRRATGVLYLLVVLVWVAAQGVLTVL)
HeLa cells
  entry into cells: found to enter into cells

## O=CC[C@@H](O)[C@H](O)[C@H](O)CO [2-DG, 2-deoxy-glucose]
RLR signaling [2]
  IFN-β expression: promoted IFN-β expression
RLR signaling [3]
  IFN-β and IL-6 production driven by RLR stimuli: markedly enhanced
Sendai virus
  virus replication: reduction in virus replication
